Experimental data as given in patent publication US8426420B2, “Heterocyclic pyrazole-carboxamidesas P2Y12 antagonists” (Sanofi, priority 2007, dated 2013).

Target: human P2Y12 receptor (Homo sapiens, UniProt Q9H244)
Assay: Human P2Y12 recombinant cell membrane binding assay with 33P 2MeS-ADP
Details: competition against 33P 2MeS-ADP, membranes of CHO cells with recombinant human P2Y12 receptor
Experimental: The ability of the compounds of the formula Ito inhibit the P2Y12 receptor can be assessed by determining the concentration of the compound of the formula I that binds to the human P2Y12 Recombinant Cell Membrane Binding Assay with 33P 2MeS-ADP.
Human P2Y12 Recombinant Cell Membrane Binding Assay
The ability of a test compound to bind to the P2Y12 receptor was evaluated in a recombinant cell membrane binding assay. In this competitive binding assay, the test compound competed against a radiolabeled agonist for binding to the P2Y12 receptor, expressed on the cell membrane. Inhibition of binding of the labeled material was measured and correlated to the amount and potency of the test compound. This binding assay is a modification of the procedure described by Takasaki, J. et. al, Mol. Pharmacol., 2001, Vol. 60, pg. 432. A membrane preparation was prepared from Chinese Hamster Ovary (CHO) cells with recombinant expression of the human P2Y12 receptor according to standard procedures as a source of P2Y12.
To a 96-well microtiterplate the following were added: a) 24 μl of assay buffer (10 mM HEPES, 138 mM NaCl, […] KCl, 12 mM NaHCO3, 1 mM EDTA-Na, 0.1% BSA, pH 7.4) b) 1 μL compound in DMSO c) 50 μL P2Y12 CHO membrane (20 μg/ml) and after 15 min at RT d) 25 μL of 1.61 nM 33P 2MeS-ADP (Perkin Elmer NEN custom synthesis, specific activity ˜2100 Ci/mmol) made in assay buffer.
After 20 min incubation at RT samples were transferred to 96-well microtiter filterplates (Millipore HTS GF/B), pre-wetted for 20 min with 300 μL of stop buffer (10 mM HEPES, 138 mM NaCl pH 7.4) and then filtered through completely with a Millipore plate vacuum. Next, wells were washed four times with 400 μl/well of stop buffer on a plate vacuum. The plate was disassembled and allowed to air dry overnight with the filter side up over night. The filter plates were snapped into adapter plates and 0.1 mL of Microscint 20 Scintillation Fluid (Perkin Elmer #6013621) was added to each well. The top of the filterplate was sealed with plastic plate covers. The sealed filterplate were incubated 2 hours at RT. A Microbeta Scintillation Counter was used to measure counts.
Compounds were diluted as 10 mM DMSO stocks and tested in a four-point, five-fold dilution series run in triplicate beginning at 10 μM, final concentration. Data were analyzed using a four-parameter curve fit with a fixed minimum and maximum experimentally defined as the average positive and negative controls on each plate.

Sequence of human P2Y12 receptor (Q9H244 whole entry): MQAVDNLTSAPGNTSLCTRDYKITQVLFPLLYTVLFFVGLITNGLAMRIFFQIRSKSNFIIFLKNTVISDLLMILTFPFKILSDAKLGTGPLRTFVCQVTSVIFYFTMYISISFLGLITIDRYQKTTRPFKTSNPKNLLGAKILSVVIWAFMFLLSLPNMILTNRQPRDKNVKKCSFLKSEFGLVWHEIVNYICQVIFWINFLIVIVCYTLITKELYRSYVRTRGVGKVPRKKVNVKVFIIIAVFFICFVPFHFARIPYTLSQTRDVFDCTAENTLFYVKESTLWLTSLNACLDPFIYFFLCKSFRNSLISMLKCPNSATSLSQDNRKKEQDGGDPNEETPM

IC50 | SMILES
86 nM | CCOC(=O)N1CCN(C(=O)[C@H](CCC(=O)O)NC(=O)c2cc(OCC(=O)N3CCC[C@H]3c3ccccc3)n(-c3ccccc3)n2)CC1 [Example 170, 4-[(S)-4-Carboxy-2-({5-[2-oxo-2-((S)-2-phenyl-pyrrolidin-1-yl)-ethoxy]-1-phenyl-1H-pyrazole-3-carbonyl}-amino)-butyryl]-piperazine-1-carboxylic acid ethyl ester]
179 nM | CCCOC(=O)N1CCN(C(=O)C(NC(=O)c2cc(OCC(=O)N3CCC[C@H]3C(=O)NC3CCC3)n(-c3ccccc3)n2)C(C)F)CC1 (stereo partly drawn) [Example 175, 4-[2-({5-[2-((S)-2-Cyclobutylcarbamoyl-pyrrolidin-1-yl)-2-oxo-ethoxy]-1-phenyl-1H-pyrazole-3-carbonyl}-amino)-3-fluoro-butyryl]-piperazine-1-carboxylic acid propyl ester]
45 nM | CCCCOC(=O)N1CCN(C(=O)C(NC(=O)c2cc(OCC(=O)N3CCC[C@H]3C(=O)NC3CCC3)n(-c3ccccc3)n2)C(C)F)CC1 (stereo partly drawn) [Example 176, 4-[2-({5-[2-((S)-2-Cyclobutylcarbamoyl-pyrrolidin-1-yl)-2-oxo-ethoxy]-1-phenyl-1H-pyrazole-3-carbonyl}-amino)-3-fluoro-butyryl]-piperazine-1-carboxylic acid butyl ester]
16 nM | CCCCOC(=O)N1CCN(C(=O)[C@H](C)NC(=O)c2cc(OCC(=O)N3CCC[C@H]3C(=O)NC3CCC3)n(-c3ccccc3)n2)CC1 [Example 186, 4-[(S)-2-({5-[2-((S)-2-Cyclobutylcarbamoyl-pyrrolidin-1-yl)-2-oxo-ethoxy]-1-phenyl-1H-pyrazole-3-carbonyl}-amino)-propionyl]-piperazine-1-carboxylic acid butyl ester]
88 nM | CCOC(=O)N1CCN(C(=O)[C@H](CCCCOCc2ccccc2)NC(=O)c2cc(OCC(=O)N3CCC[C@H]3C(=O)NC3CCC3)n(-c3ccccc3)n2)CC1 [Example 195, 4-[(S)-6-Benzyloxy-2-({5-[2-((S)-2-cyclobutylcarbamoyl-pyrrolidin-1-yl)-2-oxo-ethoxy]-1-phenyl-1H-pyrazole-3-carbonyl}-amino)-hexanoyl]-piperazine-1-carboxylic acid ethyl ester]
23 nM | CCCCOC(=O)N1CCN(C(=O)[C@H](CCCCOCc2ccccc2)NC(=O)c2cc(OCC(=O)N3CCC[C@H]3C(=O)NC3CCC3)n(-c3ccccc3)n2)CC1 [Example 196, 4-[(S)-6-Benzyloxy-2-({5-[2-((S)-2-cyclobutylcarbamoyl-pyrrolidin-1-yl)-2-oxo-ethoxy]-1-phenyl-1H-pyrazole-3-carbonyl}-amino)-hexanoyl]-piperazine-1-carboxylic acid butyl ester]
99 nM | O=C(N[C@@H](CCCCOCc1ccccc1)C(=O)N1CCN(C(=O)OC2CCC2)CC1)c1cc(OCC(=O)N2CCC[C@H]2C(=O)NC2CCC2)n(-c2ccccc2)n1 [Example 197, 4-[(S)-6-Benzyloxy-2-({5-[2-((S)-2-cyclobutylcarbamoyl-pyrrolidin-1-yl)-2-oxo-ethoxy]-1-phenyl-1H-pyrazole-3-carbonyl}-amino)-hexanoyl]-piperazine-1-carboxylic acid cyclobutyl ester]
17 nM | CCCCOC(=O)N1CCN(C(=O)[C@H](CCCOC(=O)C(C)C)NC(=O)c2cc(OCC(=O)N3CCC[C@H]3C(=O)NC3CCC3)n(-c3ccccc3)n2)CC1 [Example 212, 4-[(S)-2-({5-[2-((S)-2-Cyclobutylcarbamoyl-pyrrolidin-1-yl)-2-oxo-ethoxy]-1-phenyl-1H-pyrazole-3-carbonyl}-amino)-5-isobutyryloxy-pentanoyl]-piperazine-1-carboxylic acid butyl ester]
136 nM | CCCCOC(=O)N1CCN(C(=O)[C@H](CC2CCCCC2)NC(=O)c2cc(OCC(=O)N3CCC[C@H]3C(=O)NC3CCC3)n(-c3ccccc3)n2)CC1 [Example 225, 4-[(S)-2-({5-[2-((S)-2-Cyclobutylcarbamoyl-pyrrolidin-1-yl)-2-oxo-ethoxy]-1-phenyl-1H-pyrazole-3-carbonyl}-amino)-3-cyclohexyl-propionyl]-piperazine-1-carboxylic acid butyl ester]
59 nM | CCCCOC(=O)N1CCN(C(=O)[C@H](CC(C)C)NC(=O)c2cc(OCC(=O)N3CCC[C@H]3C(=O)NC3CCC3)n(-c3ccccc3)n2)CC1 [Example 226, 4-[(S)-2-({5-[2-((S)-2-Cyclobutylcarbamoyl-pyrrolidin-1-yl)-2-oxo-ethoxy]-1-phenyl-1H-pyrazole-3-carbonyl}-amino)-4-methyl-pentanoyl]-piperazine-1-carboxylic acid butyl ester]

Continued, compound first:

SMILES | IC50
CCOC(=O)N1CCN(C(=O)[C@H](CCC(=O)OCc2ccccc2)NC(=O)c2cc(OCC(=O)N3CCC[C@H]3C(=O)NC3CCC3)n(-c3ccccc3)n2)CC1 [Example 132, 4-[(S)-2-({5-[2-((S)-2-Cyclobutylcarbamoyl-pyrrolidin-1-yl)-2-oxo-ethoxy]-1-phenyl-1H-pyrazole-3-carbonyl}-amino)-4-benzyloxycarbonyl-butyryl]-piperazine-1-carboxylic acid ethyl ester] | 25 nM
CCCOC(=O)CC[C@H](NC(=O)c1cc(OCC(=O)N2CCC[C@H]2C(=O)NC2CCC2)n(-c2ccccc2)n1)C(=O)N1CCN(C(=O)OCC)CC1 [Example 133, 4-[(S)-2-({5-[2-((S)-2-Cyclobutylcarbamoyl-pyrrolidin-1-yl)-2-oxo-ethoxy]-1-phenyl-1H-pyrazole-3-carbonyl}-amino)-4-propoxycarbonyl-butyryl]-piperazine-1-carboxylic acid ethyl ester] | 42 nM
CCCCOC(=O)CC[C@H](NC(=O)c1cc(OCC(=O)N2CCC[C@H]2C(=O)NC2CCC2)n(-c2ccccc2)n1)C(=O)N1CCN(C(=O)OCC)CC1 [Example 134, 4-[(S)-2-({5-[2-((S)-2-Cyclobutylcarbamoyl-pyrrolidin-1-yl)-2-oxo-ethoxy]-1-phenyl-1H-pyrazole-3-carbonyl}-amino)-4-butoxycarbonyl-butyryl]-piperazine-1-carboxylic acid ethyl ester] | 42 nM
CCOC(=O)N1CCN(C(=O)[C@H](CCC(=O)OC(C)C)NC(=O)c2cc(OCC(=O)N3CCC[C@H]3C(=O)NC3CCC3)n(-c3ccccc3)n2)CC1 [Example 137, 4-[(S)-2-({5-[2-((S)-2-Cyclobutylcarbamoyl-pyrrolidin-1-yl)-2-oxo-ethoxy]-1-phenyl-1H-pyrazole-3-carbonyl}-amino)-4-isopropoxycarbonyl-butyryl]-piperazine-1-carboxylic acid ethyl ester] | 148 nM
CCOC(=O)CC[C@H](NC(=O)c1cc(OCC(=O)N2CCC[C@H]2C(=O)NC2CCC2)n(-c2cccc(F)c2)n1)C(=O)N1CCN(C(=O)OCC)CC1 [Example 140, 4-((S)-2-{[5-[2-((S)-2-Cyclobutylcarbamoyl-pyrrolidin-1-yl)-2-oxo-ethoxy]-1-(3-fluoro-phenyl)-1H-pyrazole-3-carbonyl]-amino}-4-ethoxyoxycarbonyl-butyryl)-piperazine-1-carboxylic acid ethyl ester] | 173 nM
CCOC(=O)N1CCN(C(=O)[C@H](CCC(=O)O)NC(=O)c2cc(OCC(=O)N3CCC[C@H]3C(=O)NCCF)n(-c3ccccc3)n2)[C@H](C)C1 [Example 151, (R)-4-[(S)-4-Carboxy-2-({5-[2-((S)-2-(2-fluoroethyl-carbamoyl)-pyrrolidin-1-yl)-2-oxo-ethoxy]-1-phenyl-1H-pyrazole-3-carbonyl}-amino)-butyryl]-3-methyl-piperazine-1-carboxylic acid ethyl ester] | 166 nM
CCOC(=O)N1CCN(C(=O)[C@H](CCC(=O)O)NC(=O)c2cc(OCC(=O)N3CCC[C@H]3C(=O)NCC3CC3)n(-c3ccccc3)n2)[C@H](C)C1 [Example 152, (R)-4-[(S)-4-Carboxy-2-({5-[2-((S)-2-(cyclopropylmethyl-carbamoyl)-pyrrolidin-1-yl)-2-oxo-ethoxy]-1-phenyl-1H-pyrazole-3-carbonyl}-amino)-butyryl]-3-methyl-piperazine-1-carboxylic acid ethyl ester] | 37 nM
CCOC(=O)N1CCN(C(=O)[C@H](CCC(=O)O)NC(=O)c2cc(OCC(=O)N3CCCC3c3cccs3)n(-c3ccccc3)n2)CC1 (stereo partly drawn) [Example 167, 4-[(S)-4-Carboxy-2-({5-[2-oxo-2-(2-thiophen-2-yl-pyrrolidin-1-yl)-ethoxy]-1-phenyl-1H-pyrazole-3-carbonyl}-amino)-butyryl]-piperazine-1-carboxylic acid ethyl ester] | 146 nM
